Test systems include NCI/ADR-RES ovarian; OVCAR-8 ovarian; UACC-62 melanoma; A498 renal; HOP-62 NSCLC; IGROV1 ovarian; SNB-19 CNS; EKVX NSCLC; UO-31 renal; HCT-15 colon.
Test in all cases: NCI tumour cell line growth inhibition, 48 h

For nine compounds, GI50 and TGI results are on record in PubChem BioAssay (NCI).

“And” between values parts separate entries of the source, which are not always exact repeats. Identical values can stand only once.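 Grown in 96-well plates, cells were treated for 48 hours with each compound at five concentrations. Insufficient inhibition: endpoint recorded as highest concentration tested. At the GI50, growth is halved. At the TGI there is no net growth.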

For the compound `C/C(=C(/c1ccc(O)cc1)c1ccc(OCCN2CCCC2)cc1)c1ccccc1`, the GI50 with NCI/ADR-RES ovarian was 4170 nM; in the assay on OVCAR-8 ovarian, 5730 nM; with UACC-62 melanoma it was 2260 nM; with A498 renal, 1670 nM; in the assay with HOP-62 NSCLC, 2100 nM; in the assay with IGROV1 ovarian it was 6800 nM. The GI50 with SNB-19 CNS is 2950 nM; in the assay on EKVX NSCLC it was 2460 nM; in the assay with UO-31 renal, 1870 nM; in the assay with HCT-15 colon, 1810 nM. The TGI in the assay on NCI/ADR-RES ovarian came out at 18300 nM; with OVCAR-8 ovarian it was 23100 nM; in the assay with UACC-62 melanoma it was 4720 nM; in the assay with A498 renal it was 8490 nM; with HOP-62 NSCLC it was 4540 nM; in the assay on IGROV1 ovarian, 27000 nM. In addition, the TGI with SNB-19 CNS stood at 8100 nM; in the assay with EKVX NSCLC it was 11500 nM; in the assay on UO-31 renal it was 5720 nM; with HCT-15 colon, 4640 nM.

`CC(C)(C)n1cc(-c2ccnc(NCCNS(=O)(=O)c3ccc(Br)cc3)c2)c(-c2cccc(O)c2)n1`: the GI50 is 2130 nM with NCI/ADR-RES ovarian; 2270 nM in the assay on OVCAR-8 ovarian; 1570 nM in the assay on UACC-62 melanoma; 1370 nM in the assay with A498 renal; 1500 nM with HOP-62 NSCLC; 1950 nM in the assay with IGROV1 ovarian. The GI50 with SNB-19 CNS was 2290 nM; with EKVX NSCLC, 2270 nM; in the assay with UO-31 renal, 1350 nM; with HCT-15 colon, 1350 nM. Further, the TGI was found to be 4990 nM in the assay on NCI/ADR-RES ovarian; 7710 nM in the assay on OVCAR-8 ovarian; 3080 nM with UACC-62 melanoma; 3190 nM in the assay with A498 renal; 3000 nM in the assay on HOP-62 NSCLC; 4390 nM in the assay with IGROV1 ovarian. Besides, the TGI with SNB-19 CNS stood at 5670 nM; in the assay on EKVX NSCLC, 6880 nM; in the assay with UO-31 renal it was 4470 nM; with HCT-15 colon it was 2930 nM.

With `CCN(CC)CCC(=O)Nc1ccc(Cn2nnc3c2C(=O)c2nnn(Cc4ccc(NC(=O)CCN(CC)CC)cc4)c2C3=O)cc1`, the GI50 in the assay on NCI/ADR-RES ovarian is more than 100000 nM; in the assay on OVCAR-8 ovarian, 1830 nM; in the assay on UACC-62 melanoma it was 1080 nM; with A498 renal, 2450 nM; in the assay with HOP-62 NSCLC, 1750 nM; with IGROV1 ovarian, 411 nM. In addition, the GI50 is 186 nM with SNB-19 CNS, 1540 nM in the assay with EKVX NSCLC, more than 41100 nM with UO-31 renal and 26700 nM in the assay with HCT-15 colon. For the same compound, the TGI in the assay on NCI/ADR-RES ovarian is more than 100000 nM; in the assay with OVCAR-8 ovarian it was 4410 nM; in the assay with UACC-62 melanoma it was 2670 nM; in the assay on A498 renal, 9490 nM; with HOP-62 NSCLC, 3420 nM; in the assay with IGROV1 ovarian it was 1370 nM. Moreover, the TGI in the assay with SNB-19 CNS is 373 nM; in the assay with EKVX NSCLC, 3050 nM; in the assay on UO-31 renal, more than 61800 nM; in the assay on HCT-15 colon, more than 100000 nM.

`COc1ccccc1Cn1cc2c(c1)-c1oncc1CC2`: the GI50 in the assay on NCI/ADR-RES ovarian was 529 nM; in the assay with OVCAR-8 ovarian, 1920 nM; in the assay with UACC-62 melanoma, 1110 nM; in the assay on A498 renal, 269 nM; with HOP-62 NSCLC, 1020 nM; with IGROV1 ovarian, 1840 nM. The GI50 is 625 nM with SNB-19 CNS, 830 nM in the assay on EKVX NSCLC, 4280 nM with UO-31 renal and 535 nM in the assay with HCT-15 colon. For the same compound, the TGI with NCI/ADR-RES ovarian was 3700 nM; in the assay with OVCAR-8 ovarian it was more than 50800 nM; in the assay on UACC-62 melanoma, more than 100000 nM; in the assay with A498 renal, 3440 nM; with HOP-62 NSCLC, more than 100000 nM; with IGROV1 ovarian it was more than 78700 nM. Besides, the TGI with SNB-19 CNS is more than 100000 nM; in the assay with EKVX NSCLC it was more than 94200 nM; in the assay with UO-31 renal, 42700 nM; in the assay with HCT-15 colon, more than 61200 nM.

Consider `Cc1c(C(C)C)cc(OCCO)cc1C(C)C`, for which the TGI is more than 100000 nM in the assay with NCI/ADR-RES ovarian; more than 100000 nM in the assay with OVCAR-8 ovarian; more than 100000 nM in the assay on UACC-62 melanoma; 96600 nM in the assay on A498 renal; more than 100000 nM in the assay on HOP-62 NSCLC; more than 100000 nM in the assay on IGROV1 ovarian. In addition, the TGI in the assay with SNB-19 CNS was more than 100000 nM; in the assay on EKVX NSCLC, 70900 nM; with UO-31 renal it was more than 100000 nM; in the assay on HCT-15 colon, more than 100000 nM.

Turning to `CCOP(=O)(OCC)/C(C#N)=C\c1cccc2ccccc12`, the TGI was more than 100000 nM in the assay on NCI/ADR-RES ovarian; more than 100000 nM in the assay on OVCAR-8 ovarian; more than 100000 nM with UACC-62 melanoma; 98700 nM in the assay on A498 renal; more than 100000 nM in the assay on HOP-62 NSCLC; more than 100000 nM in the assay with IGROV1 ovarian. Also, the TGI in the assay with SNB-19 CNS, with EKVX NSCLC, in the assay with UO-31 renal and with HCT-15 colon was more than 100000 nM each time.

In the case of `CC1Cc2c(N(C)C)ncnc2N(C)c2ccc(Cl)cc21` (stereo not given), the GI50 with NCI/ADR-RES ovarian is 2400 nM; with OVCAR-8 ovarian, 9170 nM; in the assay on A498 renal it was 3530 nM; in the assay with HOP-62 NSCLC, 4810 nM; in the assay on IGROV1 ovarian it was 8480 nM; in the assay on SNB-19 CNS it was 5810 nM. In addition, the GI50 with EKVX NSCLC is 2770 nM; with UO-31 renal it was 4400 nM; with HCT-15 colon, 2830 nM. Also, the TGI in the assay with NCI/ADR-RES ovarian was 23900 nM; with OVCAR-8 ovarian it was more than 100000 nM; in the assay with A498 renal, 19200 nM; in the assay on HOP-62 NSCLC, 73400 nM; in the assay on IGROV1 ovarian, more than 100000 nM; with SNB-19 CNS, more than 100000 nM. The values for the TGI with EKVX NSCLC, in the assay on UO-31 renal and with HCT-15 colon were more than 100000 nM, 72400 nM and 85900 nM, respectively.

As to `Cn1c(=O)n(-c2ccc(C(C)(C)C#N)cc2)c2c3cc(-c4cnc5ccccc5c4)ccc3ncc21`, the GI50 was 21.2 nM and 8.49 nM and 19.7 nM in the assay on NCI/ADR-RES ovarian; 10.1 nM and 5.82 nM and < 10 nM with OVCAR-8 ovarian; 11.2 nM and 4.94 nM and < 10 nM in the assay with UACC-62 melanoma; < 10 nM and 3.65 nM in the assay with A498 renal; < 10 nM and 6.05 nM in the assay with HOP-62 NSCLC; < 10 nM and 3.63 nM in the assay with IGROV1 ovarian. For the same compound, the GI50 in the assay on SNB-19 CNS is 12 nM and 6.05 nM and 10.2 nM; with EKVX NSCLC it was 15.2 nM and 5.73 nM and < 12 nM; in the assay with UO-31 renal, < 10 nM and 3.61 nM; with HCT-15 colon, < 10 nM and 5.22 nM. For the same compound, the TGI was more than 100000 nM in the assay on NCI/ADR-RES ovarian; 80.9 nM and 51.3 nM and 44.5 nM in the assay with UACC-62 melanoma; 7 nM and 30.6 nM in the assay with A498 renal; 11900 nM and > 2720 nM with HOP-62 NSCLC; 25.8 nM and 38.1 nM in the assay with IGROV1 ovarian; more than 100000 nM with SNB-19 CNS. The TGI was 74.9 nM in the assay with UO-31 renal and more than 100000 nM in the assay on HCT-15 colon.

Take `NC(Cc1nn[nH]n1)C(=O)O` (stereo not given): the TGI in the assay on NCI/ADR-RES ovarian, in the assay on OVCAR-8 ovarian, in the assay on UACC-62 melanoma, with A498 renal, in the assay on HOP-62 NSCLC and in the assay with IGROV1 ovarian was more than 100000 nM throughout. The TGI in the assay with SNB-19 CNS, in the assay on EKVX NSCLC and with HCT-15 colon was more than 100000 nM each time.
